The values that follow come from US8138159B2, “Composition for inhibiting function of human Flt3” (Takara Bio Inc., priority 2003, dated 2012).

Holding throughout (assay type): cell-based, human
The test system of data set [1] is MV4-11 (ITD mutation) cells. In words: growth inhibition by siRNA3 in combination with kinase inhibitor AG1295, WST-1 (Example 4). The settings on record: Homo sapiens, MV4-11, kinase inhibitor alone (control siRNA), 72 hours, n=6 mean, read-out: growth inhibition as compared with the cells transfected with the control siRNA/0 μM AG1295. The method, then:
The growth inhibitory activity of treatment with a combination of the composition (synthesized siRNA3) of the present invention and a kinase inhibitor on MV4-11 (ITD mutation) cells was examined. The synthesized siRNA3 used was the same as in item (1) of Example 1 above. As the kinase inhibitor, AG1295 (manufactured by CALBIOCHEM) having high specificity to ITD mutation cells was used.
In the same manner as in item (2) of Example 1 above, MV4-11 cells were cultured at 37° C. for 24 hours in a medium obtained by supplementing 10% by volume fetal bovine serum (FBS) to an RPMI 1640 medium (manufactured by TAKARA BIO INC.) (referred to hereinafter as a culture medium) in the presence of 5% by volume CO2. Then, the MV4-11 cells (1×10^6 cells/ml) suspended in Opti-MEM (trade name, manufactured by Invitrogen) were transferred to a cuvette (manufactured by BIO RAD; gap of 4 mm), and siRNA3 was added to the cuvette so as to give a final concentration of 1.2 μM. Then, the cuvette was set in Gene Pulser Xcell (trade name, manufactured by BIO RAD) and thereafter pulsed with electric field intensity of 650 V/cm for 25 msec. Then, the suspension of the cells in the cuvette was added to, and suspended in, a 4-fold excess volume of the culture medium and dispensed onto a 96-well plate so as to give an amount of 100 μl/well. […]
4 mM AG1295 (dissolved in DMSO) was diluted with the above-mentioned culture medium to prepare AG1295 dilutions at a concentration of 10 μM, 6 μM and 0 μM (0.25% by volume DMSO) and added so as to give an amount of 100 μl/well to the 96-well plate prepared in step (2) above and cultured at 37° C. in the presence of 5% by volume CO2. Seventy-two hours after the culture was initiated, the growth activity of the cells was determined using Premix WST-1 reagent (trade name, manufactured by TAKARA BIO INC.) according to a manufacturer's protocol. Each experiment was carried out with n=6, and the mean was determined. The relative growth ratio (%) to the growth ability of the cells transfected with the control siRNA/0 μM AG1295 was determined. […]

The subject of data set [2] is EoL1 cells (WT-highly expressing). The data set is described as follows: cell growth activity, Premix WST1 (Example 2). The settings on record: for Relative growth ability (%) compared with the control: siRNA 10 nM, after 20 hours, n=3 mean, control = transfection without siRNA. The method, then: (§1) The cells placed in a 96-well plate at a density of 2×10^4 cells/well were cultured in an RPMI medium (containing 10% by volume FBS). The cells were transfected with each of the synthesized (10 nM each) siRNAs, and after 20 hours, the cell growth activity was determined with Premix WST1 reagent (trade name, manufactured by TAKARA BIO INC.). Relative growth ability (%) compared with the growth ability of the control (cells subjected to transfection without adding an siRNA) was determined. Each experiment was carried out with n=3, and the mean was determined.

Data set [3] deals with MV4-11 cells (ITD mutation-highly expressing). The data set is described as follows: cell growth activity, Premix WST1 (Example 2). Conditions: for Relative growth ability (%) compared with the control: siRNA 10 nM, after 20 hours, n=3 mean, control = transfection without siRNA. The protocol:
as §1

Data set [4] concerns HL60 cells (WT-low expressing). In words: cell growth activity, Premix WST1 (Example 2). The settings on record: for Ratio of cell-growth activation defining RNA interference effect in HL60 as 1: HL60, the reference itself; for Relative growth ability (%) compared with the control: HL60, siRNA 10 nM, after 20 hours, n=3 mean, control = transfection without siRNA. The method, then:
as §1

Data set [5] relates to Flt3 mRNA. The data set is described as follows: Flt3 mRNA interference by synthesized siRNA, real-time RT-PCR (Example 1). The settings on record: for inhibition percentage (%) of the relative mRNA expression level (Flt3 mRNA/GAPDH mRNA): siRNA 200 pmol, Oligofectamin, after 24 hours, vs cells transfected without siRNA. The protocol:
Each kind of cell selected from HL-60 cells [Flt3 WT (wild-type) low expressing cells; ATCC CCL-240], EoL-1 cells [Flt3 WT (wild-type) highly expressing cells; ECACC 94042252] and MV4-11 cells [Flt3/ITD highly expressing cells; ATCC CRL-9591] was cultured at 37° C. in an RPMI 1640 medium (manufactured by TAKARA BIO INC.) supplemented with 10% by volume fetal bovine serum (FBS) in the presence of 5% by volume CO2.
Then, the cells (2×10^5 cells/nil) were pre-cultured for 24 hours in a 6-well plate, then recovered, and suspended so as to give a density of 1.5×10^5 cells/ml in Opti-MEM (trade name, manufactured by Invitrogen), and the synthesized siRNA was added to the resulting suspension so as to give a final concentration of 200 pmol. Transfection was carried out using Oligofectamin (trade name, manufactured by Invitrogen) in an amount of 4 μl/reaction, according to an Invitrogen's protocol attached to Oligofectamin (trade name). As a control, the cells were subjected to similar operations without adding the siRNA. The unspecific influence of the siRNA was evaluated using an siRNA to a BCR/ABL chimera mRNA.
Confirmation of RNA interference of the target gene was carried out by determining change in mRNA level by a real-time RT-PCR method as shown below.
Using Oligofectamin (trade name, manufactured by Invitrogen), each kind of cell was transfected with the synthesized siRNA. After 24 hours, whole RNA was extracted from the resulting cells with TRIzol™ reagent (manufactured by Invitrogen), and the resulting product was treated with DNaseI (manufactured by TAKARA BIO INC.). The transfection, the extraction of the whole RNA and the treatment with DNaseI were carried out according to a manufacturer's protocol of the reagent used.
The real-time PCR method was carried out using a Real Time One Step RNA PCR Kit (trade name, manufactured by TAKARA BIO INC.), 100 ng of the resulting RNA as a template and a pair of primers (each 20 pmol), that is, an oligonucleotide having the nucleotide sequence of SEQ ID NO: 13 and an oligonucleotide having the nucleotide sequence of SEQ ID NO: 14. In the real-time RT-PCR method, change in fluorescence based on SYBER Green I (manufactured by TAKARA BIO INC.) was determined with Light Cycler (trade name, manufactured by Roche). The RNA level was standardized by similarly determining GAPDH mRNA with primers set forth in SEQ ID NOs: 15 and 16.
The PCR conditions were as follows: after incubation was carried out at 95° C. for 30 seconds, the reaction was carried out in 40 cycles each consisting of the reaction at 95° C. for 1 second, then at 60° C. for 10 seconds, and at 72° C. for 30 seconds.
The inhibition percentage (%) of the relative mRNA expression level (Flt3 mRNA/GAPDH mRNA) changed by using the synthesized siRNA, as calculated assuming that the relative mRNA expression level (Flt3 mRNA/GAPDH mRNA) of the cells only subjected to each operation of the transfection without adding the synthesized siRNA was 100%, was shown in Table 1.

The mark [6] stands for this setting: EoL1 (WT-highly expressing), the reference itself.
Setting [7] is: MV4-11 (ITD mutation-highly expressing).

Marks after values point to notes of the source that are not given here.

Regarding `Cc1cc2ncc(-c3ccccc3)nc2cc1C` [AG1295], the inhibition at 3 µM in data set [1] (3.0 μM) was 59.8%. In data set [1] (5.0 μM), the inhibition at 5 µM came to 84.3%.
In the case of “siRNA1: siRNA to ATP-binding site region of Flt3 (target SEQ ID NO: 1); sense SEQ ID NO: 2, antisense SEQ ID NO: 3 (sense GGUACUAGGAUCAGGUGCUTT; antisense AGCACCUGAUCCUAGUACCTT; chemistry not given here)”, the “Ratio of cell-growth activation defining RNA interference effect in HL60 as 1” value in data set [2] is recorded as “(0.60)”; in data set [3], “(0.49)”; in data set [4], “(1)*”. The “Relative growth ability (%) compared with the control” value is on record as 68.5% in data set [2], 56.4% in data set [3] and 116% in data set [4]. Moreover, the “Relative ratio of inhibition defining RNA interference effect in EoL1 as 1” value in data set [5] (setting [6]) is on record as “(1)*”; in data set [5] (setting [7]), “(1.6)”. The “inhibition percentage (%) of the relative mRNA expression level (Flt3 mRNA/GAPDH mRNA)” value is 41% in data set [5] (EoL1 (WT-highly expressing)), 31% in data set [5] (HL60 (WT-low expressing)) and 65% in data set [5] (setting [7]). Moreover, the “selective inhibition of Flt3 mRNA expression relative to the inhibition ratio in the cells without ITD mutation (WT)” value in data set [5] (cells having ITD mutation vs WT cells) was ≥ 1.6 fold.
Regarding “siRNA2: siRNA to TK (kinase) region of Flt3 (target SEQ ID NO: 4); sense SEQ ID NO: 5, antisense SEQ ID NO: 6 (sense CAGGAGUCUCAAUCCAGGUTT; antisense ACCUGGAUUGAGACUCCUGTT; chemistry not given here)”, the “Ratio of cell-growth activation defining RNA interference effect in HL60 as 1” value was “(0.70)” in data set [2], “(0.36)” in data set [3] and “(1)” in data set [4]. In addition, the “Relative growth ability (%) compared with the control” value worked out at 79.7% in data set [2], 41.4% in data set [3] and 115% in data set [4]. Moreover, the “Relative ratio of inhibition defining RNA interference effect in EoL1 as 1” value in data set [5] (setting [6]) and in data set [5] (setting [7]) was “(1)” in each case. The “inhibition percentage (%) of the relative mRNA expression level (Flt3 mRNA/GAPDH mRNA)” value in data set [5] (EoL1 (WT-highly expressing)) came to 54%; in data set [5] (HL60 (WT-low expressing)) it was 46%; in data set [5] (setting [7]), 54%. Besides, the “inhibition of Flt3 mRNA expression relative to the cells without using an siRNA” value in data set [5] (all cells (MV4-11, EoL1, HL60)) is given as “around 50%”.
Take “siRNA4: siRNA to BCR/ABL chimera mRNA (target SEQ ID NO: 10); sense SEQ ID NO: 11, antisense SEQ ID NO: 12; unspecific control (sense GCAGAGUUCAAAAGCCCUUTT; antisense AAGGGCUUUUGAACUCUGCTT; chemistry not given here) [reference compound]”: the “inhibition percentage (%) of the relative mRNA expression level (Flt3 mRNA/GAPDH mRNA)” value in data set [5] (EoL1 (WT-highly expressing)) amounted to 8%; in data set [5] (HL60 (WT-low expressing)) it was 7%; in data set [5] (setting [7]) it was 5%. Also, the “inhibition of Flt3 mRNA expression (in words)” value in data set [5] (siRNA irrelevant to Flt3 mRNA, sequence specificity) is “did not occur”.
